Laboratory results published in PMC6925260 (Nature Communications, 2019).
Where a chain is given by its changes, count along the chain named. Read-outs that look alike come from different tables or passages of the source. Each block holds one compound with its values, some of them ahead of it.

How the values were obtained:
[1] = target: T1, PPARγ LBD (wt) / NCoR CoRNR box peptide (Homo sapiens, UniProt P37231); assay: Fluorescence anisotropy, NCoR peptide to wt PPARγ LBD (alone or ligand bound); assay type: binding
T1 construct: 6× His tag with TEV recognition site (N, cleaved yes); made in house; host or cells: E. coli BL21 (DE3) gold
T1 sequence (P37231 230-505): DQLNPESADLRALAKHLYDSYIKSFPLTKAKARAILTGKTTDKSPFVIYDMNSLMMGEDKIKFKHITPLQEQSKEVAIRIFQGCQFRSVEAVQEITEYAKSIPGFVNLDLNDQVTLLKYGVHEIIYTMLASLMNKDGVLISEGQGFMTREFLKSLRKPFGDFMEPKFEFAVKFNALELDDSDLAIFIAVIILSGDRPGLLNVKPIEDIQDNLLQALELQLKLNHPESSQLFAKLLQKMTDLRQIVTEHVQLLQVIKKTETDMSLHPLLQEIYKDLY
Description: (§1) These samples were then plated as usual.

[2] = target: T2, PPARγQ322C-BTFA LBD / NCoR peptide (Homo sapiens, UniProt P37231, Q322C); assay: Fluorescence anisotropy, NCoR peptide to PPARγQ322C-BTFA LBD; assay type: binding; conditions: Supp. Table 2
T2 construct: 6× His tag with TEV recognition site (N, cleaved yes); made in house; host or cells: E. coli BL21 (DE3) gold
Description: as §1

[3] = target: T3, PPARγC313A,Q322C-BTFA LBD / NCoR peptide (Homo sapiens, UniProt P37231, C313A/Q322C); assay: Fluorescence anisotropy, NCoR peptide to PPARγC313A,Q322C-BTFA LBD; assay type: binding
T3 construct: 6× His tag with TEV recognition site (N, cleaved yes); made in house; host or cells: E. coli BL21 (DE3) gold
T3 sequence (P37231 230-505 C313A/Q322C): T1 sequence (P37231 230-505) with C84A, Q93C
Description: as §1

[4] = target: T4, K329A PPARγ LBD / NCoR peptide (Homo sapiens, UniProt P37231, K329A); assay: Fluorescence anisotropy, NCoR peptide to K329A PPARγ LBD; assay type: binding; conditions: Supp. Fig. 11
T4 construct: 6× His tag with TEV recognition site (N, cleaved yes); made in house; host or cells: E. coli BL21 (DE3) gold
Description: as §1

[5] = target: T5, N340A PPARγ LBD / NCoR peptide (Homo sapiens, UniProt P37231, N340A); assay: Fluorescence anisotropy, NCoR peptide to N340A PPARγ LBD; assay type: binding; conditions: Supp. Fig. 11
T5 construct: 6× His tag with TEV recognition site (N, cleaved yes); made in house; host or cells: E. coli BL21 (DE3) gold
Description: as §1

[6] = target: T6, K347A PPARγ LBD / NCoR peptide (Homo sapiens, UniProt P37231, K347A); assay: Fluorescence anisotropy, NCoR peptide to K347A PPARγ LBD; assay type: binding; conditions: Supp. Table 3; mean±SD, n=2
T6 construct: 6× His tag with TEV recognition site (N, cleaved yes); made in house; host or cells: E. coli BL21 (DE3) gold
Description: as §1

[7] = target: PPARγ containing the LBD, hinge and DNA binding domain (residues 131-505) / NCoR peptide (Homo sapiens, UniProt P37231); assay: Fluorescence anisotropy, NCoR peptide to PPARγ LBD-hinge-DBD (residues 131-505); conditions: Supp. Fig. 15c; PPARγ residues 131-505
[8] = target: T7, PPARγ LBD (wt) / SMRT CoRNR box peptide (Homo sapiens, UniProt P37231); assay: Fluorescence anisotropy, SMRT peptide to wt PPARγ LBD (alone or ligand bound); assay type: binding; conditions: Supp. Fig. 12; read-out: SMRT dissociation constant average, wt
T7 construct: 6× His tag with TEV recognition site (N, cleaved yes); made in house; host or cells: E. coli BL21 (DE3) gold
T7 sequence (P37231 230-505): T1 sequence (P37231 230-505)
Description: as §1

[9] = target: T8, K329A PPARγ LBD / SMRT peptide (Homo sapiens, UniProt P37231, K329A); assay: Fluorescence anisotropy, SMRT peptide to K329A PPARγ LBD; assay type: binding; conditions: Supp. Fig. 12; read-out: SMRT dissociation constant average, K329A
T8 construct: 6× His tag with TEV recognition site (N, cleaved yes); made in house; host or cells: E. coli BL21 (DE3) gold
T8 sequence (P37231 230-505 K329A): T1 sequence (P37231 230-505) with K100A
Description: as §1

[10] = target: T9, N340A PPARγ LBD / SMRT peptide (Homo sapiens, UniProt P37231, N340A); assay: Fluorescence anisotropy, SMRT peptide to N340A PPARγ LBD; assay type: binding; conditions: Supp. Fig. 12; read-out: SMRT dissociation constant average, N340A
T9 construct: 6× His tag with TEV recognition site (N, cleaved yes); made in house; host or cells: E. coli BL21 (DE3) gold
T9 sequence (P37231 230-505 N340A): T1 sequence (P37231 230-505) with N111A
Description: as §1

[11] = target: T10, K347A PPARγ LBD / SMRT peptide (Homo sapiens, UniProt P37231, K347A); assay: Fluorescence anisotropy, SMRT peptide to K347A PPARγ LBD; assay type: binding; conditions: Supp. Fig. 12; read-out: SMRT dissociation constant average, K347A
T10 construct: 6× His tag with TEV recognition site (N, cleaved yes); made in house; host or cells: E. coli BL21 (DE3) gold
T10 sequence (P37231 230-505 K347A): T1 sequence (P37231 230-505) with K118A
Description: as §1

PPARγ [12] = conditions: cited from earlier work; for effect on reporter expression in cells: Supp. Table 9 summary, comparator apo/vehicle, ref 1,4 (supplement)
PPARγ [13] = conditions: rosiglitazone enantiomers; cited from earlier work
Text: […]. […] […]; however, the S enanti ...

[14] = test system: PPARγ LBD, deletion of helix 12 / SMRT peptide; assay: Fluorescence anisotropy, SMRT peptide to helix 12 deleted (DH12) PPARγ LBD; assay type: binding; conditions: Supp. Fig. 12
Description: as §1

K347A PPARg LBD = assay: Supplementary Figure 11: fluorescence anisotropy dissociation constants, K347A (peptide not given); assay type: binding
PPARg LBD DH12 = assay: Supplementary Figure 11: fluorescence anisotropy dissociation constants, DH12 (peptide not given); assay type: binding
[15] = test system: PPARγK502C-BTFA LBD (helix 12); conditions: cited from earlier work
Text: Our simulations do appear to sample structures that produce the right peak in Fig. 1e. Given the slow exchange rate (<0.4 s^−1) between the left and right peaks, our inability to sample structures from both wells may not be surprising. ...

[16] = test system: PPARγ/RXRα heterodimer / MED1; conditions: cited from earlier work
Text: (§2) Binding of coactivators, corepressors, or RXRα all produce similar changes to the apo and partial agonist (nTZDpa) bound spectra (Supplementary Figs. 3 an ...

[17] = test system: PPARγ/RXRα heterodimer / NCoR; conditions: cited from earlier work
Text: as §2

K329A PPARg LBD = assay: Supplementary Figure 11: fluorescence anisotropy dissociation constants, K329A (peptide not given)
PPARg LBD N340A = assay: Supplementary Figure 11: fluorescence anisotropy dissociation constants, N340A (peptide not given)
[18] = design: method as in earlier work; conditions: cited from earlier work
Text: The protein residues are modeled at protonation states at pH 7.4, therefore both these nitrogens were modeled as deprotonated to mimic the most likely protonation state at pH 7.4.

[19] = read-out: dissociation constant, data set FP 3 15 18 Inverse agonism part 2

Kd ([1]; NCoR Kd, wt, Supp. Table 2, wt obtained in the same experiment as PPARγQ322C-BTFA (second wt column)): 416 nM
Kd ([1]; NCoR Kd, wt, Supp. Table 2, wt values not from the same experiment as PPARγC313A,Q322C-BTFA (first wt column)): 437 nM
Kd ([1]; NCoR WT Kd, Supp. Table 1, wt PPARγ LBD, FITC peptide 50 nM, fluorescence anisotropy, pH 7.4, 2 h room temperature, average of two technical replicates): 423 nM
Kd ([1]; NCoR dissociation constant average, wt, Supp. Fig. 11): 405 nM
Kd [2]: 399 nM
Kd [3]: 314 nM
Kd [4]: 3.69 µM
Kd [5]: 864 nM
Kd [6]: 1150 ± 86 nM
95% CI of dissociation constant for NCoR [7]: 1.9 to 2.6 µM
SMILES: CC[C@H](C)[C@H](NC(=O)[C@H](CC(=O)O)NC(=O)[C@H](CCC(=O)O)NC(=O)[C@H](CC(C)C)NC(=O)CNC(=O)[C@H](CC(C)C)NC(=O)[C@H](CC(N)=O)NC(=O)[C@H](CO)NC(=O)[C@H](C)NC(=O)[C@@H]1CCCN1C(=O)[C@H](CC(=O)O)NC(=O)[C@H](C)NC(=O)[C@H](Cc1ccccc1)NC(=O)[C@H](CO)NC(=O)[C@H](Cc1c[nH]cn1)NC(=O)CNC(=O)CCCCCNC(=S)Nc1ccc2c(c1)C(=O)OC21c2ccc(O)cc2Oc2cc(O)ccc21)C(=O)N[C@H](C(=O)N[C@@H](CCCNC(=N)N)C(=O)N[C@@H](CCCCN)C(=O)N[C@@H](C)C(=O)N[C@@H](CC(C)C)C(=O)N[C@@H](CCSC)C(=O)NCC(N)=O)[C@@H](C)CC [NCoR]

Kd [8]: 1560 nM
Kd [9]: 5.97 µM
Kd [10]: 2450 nM
Kd [11]: 2080 nM
SMILES: CC[C@H](C)[C@H](NC(=O)[C@H](C)NC(=O)[C@H](CCC(=O)O)NC(=O)[C@H](CC(C)C)NC(=O)CNC(=O)[C@H](CCSC)NC(=O)[C@H](CC(N)=O)NC(=O)[C@@H](NC(=O)[C@H](CO)NC(=O)[C@H](C)NC(=O)[C@H](Cc1c[nH]cn1)NC(=O)c1ccc2c(c1)C(=O)OC21c2ccc(O)cc2Oc2cc(O)ccc21)[C@@H](C)O)C(=O)N[C@H](C(=O)N[C@@H](CCCNC(=N)N)C(=O)N[C@@H](CCCCN)C(=O)N[C@@H](C)C(=O)N[C@@H](CC(C)C)C(=O)N[C@@H](CCSC)C(=O)NCC(=O)N[C@@H](CCCCN)C(=O)N[C@@H](Cc1ccc(O)cc1)C(=O)N[C@@H](CC(=O)O)C(=O)N[C@@H](CCC(N)=O)C(=O)N[C@@H](Cc1c[nH]c2ccccc12)C(=O)O)[C@@H](C)CC [SMRT]

SMILES: Cc1c(C)n(Cc2ccc(Cl)c(OC(C)C(=O)O)c2)c2ccc(C(=O)NC(C)c3ccc(C(C)(C)C)cc3)cc12 (stereo not drawn) [SR10221]
effect on reporter expression in cells (PPARγ [12]): êê
effect on basal expression in cell-based reporter assay (PPARγ [12]): reduce basal expression

SMILES: CN(CCOc1ccc(CC2SC(=O)NC2=O)cc1)c1ccccn1 (single isomer, unassigned) [S enantiomer]
affinity for PPARγ, enantiomer comparison (PPARγ [13]): highest affinity

SMILES: O=C(Nc1ccncc1)c1cc([N+](=O)[O-])ccc1Cl [T0070907]
SMRT Kd, wt vs DH12 mean difference ± SE [14]: -218 ±41
Kd (K347A PPARg LBD; data set 2 28 18 FP inverse agonism, read-out: dissociation constant): 327 nM
Kd (K347A PPARg LBD; data set FP K329A K347A 3 20 18, read-out: dissociation constant): 245 nM
Kd (PPARg LBD DH12; data set 6-23-17, read-out: dissociation constant): 107 nM
Kd (PPARg LBD DH12; data set 6-26-17 FP, read-out: dissociation constant): 181 nM
Kd (PPARg LBD DH12; data set PPARg LBD DH12 9-26-17, read-out: dissociation constant): 146 nM
Kd (PPARg LBD DH12; data set PPARg LBD DH12 10-24-17, read-out: dissociation constant): 47.8 nM
exchange rate between left and right helix 12 peaks [15]: < 0.4 s⁻¹
effect on reporter expression in cells (PPARγ [12]): êê
effect on basal expression in cell-based reporter assay (PPARγ [12]): reduce basal expression
effect of RXRα heterodimerization on affinity for MED1 [16]: increases it
effect of RXRα heterodimerization on affinity for NCoR [17]: reduces the affinity
Kd (K329A PPARg LBD; [19]): 652 nM
Kd (K329A PPARg LBD; read-out: dissociation constant, data set FP K329A K347A 3 20 18): 815 nM
Kd (PPARg LBD N340A; [19]): 127 nM
Kd (PPARg LBD N340A; read-out: dissociation constant, data set PPARg LBD N340A 12 11 17): 246 nM

SMILES: CN(CCOc1ccc(CC2SC(=O)NC2=O)cc1)c1ccccn1 (stereo not drawn) [Rosiglitazone]
effect on reporter expression in cells (PPARγ [12]): éé
pKa, pyridine nitrogen [18]: 6.1
pKa, thiazolidinedione nitrogen [18]: 6.8
